Data: patent publication EP4740962A1, “PHARMACEUTICAL COMPOSITION, FORMULATION CONTAINING PHARMACEUTICAL COMPOSITION, KIT CONTAINING PHARMACEUTICAL COMPOSITION, PREPARATION METHOD FOR PHARMACEUTICAL COMPOSITION, AND USE OF PHARMACEUTICAL COMPOSITION” (Shanghai WD Pharmaceutical Co., Ltd, priority 2023, dated 2025)

Legend:
[1] = Compatibility study of carbidopa-levodopa granule raw materials and excipients at 40°C/75% RH; type: physicochemical
Excerpt: (§1) After preparation into the formulation, there was a risk of exceeding the limit for related substances in terms of stability.

[2] = Compatibility study of voriconazole granule raw material and excipients at 40°C/75% RH; type: physicochemical
Excerpt: as §1

Row | Appearance [1] | Total impurities (%) ([1]; 0 Days) | Total impurities (%) ([1]; 14 Days) | Total impurities (%) ([1]; 28 Days) | Appearance [2] | Total impurities (%) ([2]; 0 Days) | Total impurities (%) ([2]; 14 Days) | Total impurities (%) ([2]; 28 Days) | Compound
1 | No change | 0.10% | 0.08% | 0.07% | – | – | – | – | C[C@@](Cc1ccc(O)c(O)c1)(NN)C(=O)O [Carbidopa]
2 | No change | Not detected | 0.03% | 0.07% | – | – | – | – | N[C@@H](Cc1ccc(O)c(O)c1)C(=O)O [Levodopa]
3 | – | – | – | – | No change | 0.01% | 0.01% | 0.01% | C[C@@H](c1ncncc1F)[C@](O)(Cn1cncn1)c1ccc(F)cc1F [Voriconazole]
